In ChEMBL document CHEMBL6103560, “MoA Studies of the TEAD P-Site Binding Ligand MSC-4106 and Its Optimization to TEAD1-Selective Amide M3686” (J Med Chem, 2025):
Activity calls are given as the source filed them. No cut-off for these calls is given here.

Experiments:
[1] = Inhibition of CTGF expression in human NCI-H226 cells incubated for 24 hrs by qPCR analysis; assay type: functional, cell-based; conditions: NCI-H226, 24 h
CAKI-1 [2] = experiment: Antiproliferative activity against YAP-dependent human CAKI-1 cells incubated for 4 days by CyQuant assay; assay type: functional, cell-based; conditions: CAKI-1, 96 h
NCI-H226 [3] = experiment: Antiproliferative activity against YAP-dependent human NCI-H226 cells incubated for 4 days by CellTiter-Glo 2.0 cell viability assay; assay type: functional, cell-based; conditions: NCI-H226, 96 h
SK-HEP1 [4] = experiment: Antiproliferative activity against YAP-dependent human SK-HEP1 cells incubated for 4 days by CyQuant assay; assay type: functional, cell-based; conditions: SK-HEP1, 96 h
MSTO-211H [5] = experiment: Antiproliferative activity against YAP-dependent human MSTO-211H cells incubated for 4 days by CyQuant assay; assay type: functional, cell-based; conditions: 96 h
Detroit 562 [6] = experiment: Antiproliferative activity against YAP-dependent human Detroit 562 cells incubated for 4 days by CyQuant assay; assay type: functional, cell-based; conditions: Detroit 562, 96 h
CAKI-1 [7] = experiment: Antiproliferative activity against YAP-dependent human CAKI-1 cells assessed as efficacy incubated for 4 days by CyQuant assay relative to control; assay type: functional; conditions: time 4 day
Detroit 562 [8] = experiment: Antiproliferative activity against YAP-dependent human Detroit 562 cells assessed as efficacy incubated for 4 days by CyQuant assay relative to control; assay type: functional; conditions: time 4 day
NCI-H226 [9] = experiment: Downregulation of CTGF gene expression in human NCI-H226 cells incubated for 6 to 24 hrs by qPCR analysis; assay type: functional, cell-based; conditions: time lower 6.0 hrs, time upper […]
SK-HEP1 [10] = experiment: Antiproliferative activity against YAP-dependent human SK-HEP1 cells assessed as efficacy incubated for 4 days by CyQuant assay relative to control; assay type: functional; conditions: time 4 day
NCI-H226 [11] = experiment: Antitumor activity against human NCI-H226 cells xenografted in female CEA BRG mouse model assessed as reduction in tumor volume at 37.5 to 75 mg/kg, po administered once daily for 31 days; assay type: functional, organism-based; conditions: dose 37.5-75 mg/kg, time 31.0 day
[12] = Inhibition of TEAD(unknown origin)/YAP protein-protein interaction transfected in human SK-HEP1 cells incubated for 24 hrs by NanoLuc luciferase reporter assay; assay type: cell-based
CAKI-2 = experiment: Antiproliferative activity against YAP-dependent human CAKI-2 cells incubated for 4 days by CyQuant assay; assay type: functional, cell-based; conditions: CAKI-2, 96 h
RL95-2 [13] = experiment: Antiproliferative activity against YAP-dependent human RL95-2 cells assessed as efficacy incubated for 4 days by CyQuant assay relative to control; assay type: functional; conditions: time 4 day
CAL-27 [14] = experiment: Antiproliferative activity against YAP-dependent human CAL-27 cells incubated for 4 days by CyQuant assay; assay type: functional, cell-based; conditions: CAL-27, 96 h
[15] = Inhibition of CYR61 expression in human NCI-H226 cells incubated for 24 hrs by qPCR analysis; assay type: functional, cell-based; conditions: NCI-H226, 24 h
NCI-H226 [16] = experiment: Antiproliferative activity against YAP-dependent human NCI-H226 cells assessed as efficacy incubated for 4 days by CellTiter-Glo 2.0 cell viability assay relative to control; assay type: functional; conditions: time 4 day
NCI-H292 [17] = experiment: Antiproliferative activity against YAP-dependent human NCI-H292 cells assessed as efficacy incubated for 4 days by CyQuant assay relative to control; assay type: functional; conditions: time 4 day
MSTO-211H [18] = experiment: Antiproliferative activity against YAP-dependent human MSTO-211H cells assessed as efficacy incubated for 4 days by CyQuant assay relative to control; assay type: functional; conditions: time 4 day
NCI-H292 [19] = experiment: Antiproliferative activity against YAP-dependent human NCI-H292 cells incubated for 4 days by CyQuant assay; assay type: functional, cell-based; conditions: NCI-H292, 96 h
NCI-H226 [20] = experiment: Antitumor activity against human NCI-H226 cells xenografted in female CEA BRG mouse model assessed as reduction in tumor volume administered orally once daily for 31 days; assay type: functional; conditions: dose 3-30 mg/kg, route po, time 31.0 day
NCI-H226 [21] = experiment: Antitumor activity against human NCI-H226 cells xenografted in female CEA BRG mouse model assessed as reduction in tumor volume at 15 mg/kg, po administered twice daily for 31 days; assay type: functional, organism-based; conditions: time 31.0 day
RL95-2 [22] = experiment: Antiproliferative activity against YAP-dependent human RL95-2 cells incubated for 4 days by CyQuant assay; assay type: functional, cell-based; conditions: RL95-2, 96 h
CAL-27 [23] = experiment: Antiproliferative activity against YAP-dependent human CAL-27 cells assessed as efficacy incubated for 4 days by CyQuant assay relative to control; assay type: functional; conditions: time 4 day
[24] = target: Transcriptional enhancer factor TEF-1 (Homo sapiens) (UniProt P28347); experiment: Inhibition of P-FLAG-tagged TEAD1 palmitoylation (unknown origin) transfected in HEK293 cells at 0.001 to 10 uM incubated for 6 hrs by Western blot analysis; assay type: cell-based; conditions: dose 0.001-10 µM
Transcriptional enhancer factor TEF-1 (Homo sapiens), sequence (P28347 whole entry): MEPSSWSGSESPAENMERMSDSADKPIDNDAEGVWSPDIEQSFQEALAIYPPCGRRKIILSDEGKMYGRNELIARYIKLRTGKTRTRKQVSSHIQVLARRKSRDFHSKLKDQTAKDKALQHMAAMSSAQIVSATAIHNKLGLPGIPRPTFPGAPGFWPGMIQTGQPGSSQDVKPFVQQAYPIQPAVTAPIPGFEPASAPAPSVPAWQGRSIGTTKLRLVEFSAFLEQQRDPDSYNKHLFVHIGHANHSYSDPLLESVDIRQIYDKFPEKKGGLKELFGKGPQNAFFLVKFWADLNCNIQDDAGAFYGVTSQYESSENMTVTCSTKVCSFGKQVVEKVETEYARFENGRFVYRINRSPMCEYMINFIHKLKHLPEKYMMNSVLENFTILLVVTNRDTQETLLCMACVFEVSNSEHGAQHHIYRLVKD

NCI-H226 [25] = experiment: Downregulation of CYR61 gene expression in human NCI-H226 cells incubated for 6 to 24 hrs by qPCR analysis; assay type: functional, cell-based; conditions: time lower 6.0 hrs, time upper […]

IC50 [1]: 122 nM
IC50 (NCI-H226 [3]): 59 nM
IC50 (SK-HEP1 [4]): 11000 nM
IC50 [12]: 51 nM
IC50 [15]: 122 nM
IC50 (NCI-H292 [19]): 300 nM
inhibition [24]: Active
Compound: Cn1nc2c3cc(C(=O)N4CC[C@H](O)C4)ccc3n(-c3ccc(C(F)(F)F)cc3)c2n1
IC50 (CAKI-1 [2]): 5000 nM
IC50 (MSTO-211H [5]): 100 nM
IC50 (Detroit 562 [6]): 16000 nM
Efficacy (CAKI-1 [7]): 92%
Efficacy (Detroit 562 [8]): 97%
Activity (NCI-H226 [9]): Active
Efficacy (SK-HEP1 [10]): 122%
Activity (NCI-H226 [11]): Active
IC50 (CAKI-2): > 30000 nM
Efficacy (RL95-2 [13]): 103%
IC50 (CAL-27 [14]): 11000 nM
Efficacy (NCI-H226 [16]): 98%
Efficacy (NCI-H292 [17]): 73%
Efficacy (MSTO-211H [18]): 51%
Activity (NCI-H226 [20]): Dose-dependent-effect
Activity (NCI-H226 [21]): Active
IC50 (RL95-2 [22]): 9000 nM
Efficacy (CAL-27 [23]): 102%
Activity (NCI-H226 [25]): Active
